From US6683107B2, “Furans, benzofurans, and thiophenes useful in the treatment of insulin resistance and hyperglycemia” (Wyeth, priority 1998, dated 2004)
Counter-ions that a name gives are not always drawn.

What was measured:
[1] = target: T1, human recombinant PTP1B (hPTP1B) (Homo sapiens, UniProt P18031); assay: Inhibition of tri-phosphorylated insulin receptor dodecaphosphopeptide dephosphorylation by hPTP1B (malachite green phosphate detection); format: biochemical; details: for IC50: recombinant PTP1B, insulin receptor 1142-1153 triphosphopeptide substrate, 37° C., 30 min, pH 7.4; for inhibition at 1 µM: compound at 1.0 μM, percent of phosphatase control
T1 construct: made in house
T1 sequence (P18031 1-435): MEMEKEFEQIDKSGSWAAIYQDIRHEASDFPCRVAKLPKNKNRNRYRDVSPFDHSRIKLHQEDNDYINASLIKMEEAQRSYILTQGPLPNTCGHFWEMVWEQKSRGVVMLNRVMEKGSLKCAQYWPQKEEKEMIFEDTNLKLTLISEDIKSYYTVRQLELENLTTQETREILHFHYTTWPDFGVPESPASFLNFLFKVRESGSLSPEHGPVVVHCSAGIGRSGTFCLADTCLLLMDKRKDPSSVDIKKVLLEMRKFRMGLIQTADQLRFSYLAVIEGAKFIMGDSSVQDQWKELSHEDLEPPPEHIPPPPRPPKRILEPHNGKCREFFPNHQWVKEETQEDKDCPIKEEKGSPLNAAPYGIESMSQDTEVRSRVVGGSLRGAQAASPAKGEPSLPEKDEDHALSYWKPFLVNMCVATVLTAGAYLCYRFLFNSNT

IC50 [1] [nM] | melting point [°C] | Compound | inhibition at 1 µM [1] [%] | % inhibition @ 0.5 μM [1] [% inhibition @ 0.5 μM]
226 | 148 | Cc1oc(Cc2cccc(Br)c2)c(C(=O)c2cc(C(C)C)c(OS(=O)(=O)c3ccc(C(=O)O)c(O)c3)c(C(C)C)c2)c1C [Example 10, 4-{4-[2-(3-Bromo-benzyl)-4.5-dimethyl-furan-3-carbonyl]-2.6-diisopropylphenoxysulfonyl}-2-hydroxy-benzoic acid] | – | –
– | 211 to 212 | CCc1oc2ccccc2c1C(=O)c1cc(-c2ccccc2)c(OS(=O)(=O)c2ccc(C(=O)O)c(O)c2)c(-c2ccccc2)c1 (as salt: sodium) [Example 6, 4-[5′-(2-Ethyl-benzofuran-3-carbonyl)-[1,1′: 3′,1″]terphenyl-2′-yloxysulfonyl-]2-hydroxy-benzoic acid sodium salt] | – | –
83 | 142 to 143 | Cc1oc(Cc2ccccc2)c(C(=O)c2cc(C(C)C)c(OS(=O)(=O)c3ccc(C(=O)O)c(O)c3)c(C(C)C)c2)c1C [Example 5, 4-[4-(2-Benzyl-4,5-dimethyl-furan-3-carbonyl)-2,6-diisopropyl-phenoxysulfonyl]-2-hydroxy-benzoic acid] | – | –
130 | 190 to 197 | CCCCc1oc2ccccc2c1C(=O)c1cc(-c2ccccc2)c(OS(=O)(=O)c2ccc(C(=O)O)c(O)c2)c(-c2ccccc2)c1 [Example 2, 4-[5′-(2-Butyl-benzofuran-3-carbonyl)-[1,1′; 3′1″]terphenyl-2′-yloxysulfonyl]-2-hydroxy-benzoic acid] | – | –
99 | 165 to 168 | Cc1oc(Cc2ccc(Br)cc2)c(C(=O)c2cc(C(C)C)c(OS(=O)(=O)c3ccc(C(=O)O)c(O)c3)c(C(C)C)c2)c1C [Example 11, 4-{4-[2-(4-Bromo-benzyl)4,5-dimethyl-fuiran-3-carbonyl]-2,6-diisopropyl-phenoxysulfonyl}-2-hydroxy-benzoic acid] | – | –
8700 | – | Ammonium molybdate tetrahydrate [reference compound] | – | –
371 | 72 to 82 | Cc1oc(Cc2ccccc2Br)c(C(=O)c2ccc(OS(=O)(=O)c3ccc(C(=O)O)c(O)c3)c(C3CCCC3)c2)c1C [Example 21, 4-{4-[2-(2-Bromo-benzyl)4,5-dimethyl-furan-3-carbonyl]-2-cyclopentyl-phenoxysulfonyl}-2-hydroxy-benzoic acid] | – | –
643 | 80 to 85 | Cc1oc(Cc2ccccc2)c(C(=O)c2ccc(OS(=O)(=O)c3ccc(C(=O)O)c(O)c3)c(C3CCCC3)c2)c1C [Example 17, 4-[4-(2-Benzyl-4,5-dimethyl-furan-3-carbonyl)-2-cyclopentyl-phenoxysulfonyl]-2-hydroxy-benzoic acid] | – | –
75 | 130 to 135 | Cc1oc(Cc2ccc3ccccc3c2)c(C(=O)c2cc(C(C)C)c(OS(=O)(=O)c3ccc(C(=O)O)c(O)c3)c(C(C)C)c2)c1C [Example 8, 4-[4-(4,5-Dimethyl-2-naphthalen-2-ylmethyl-furan-3-carbonyl)-2,6-diisopropyl-phenoxysulfonyl]-2-hydroxy-benzoic acid] | – | –

Second part, the compound before the results:

Compound | IC50 [1] [nM] | melting point [°C] | inhibition at 1 µM [1] [%] | % inhibition @ 0.5 μM [1] [% inhibition @ 0.5 μM]
CCCCc1oc2ccccc2c1Cc1ccc(OS(=O)(=O)c2ccc(C(=O)O)c(O)c2)cc1 [Example 28, 4-[4-(2-Butyl-benzofuran-3-ylmethyl)-phenoxysulfonyl]-2-hydroxy-benzoic acid] | 577 | 135 to 138 | – | –
CCCCc1oc2ccccc2c1CCc1ccc(OS(=O)(=O)c2ccc(C(=O)O)c(OC(C)=O)c2)cc1 [Example 26, 2-Acetoxy-4-{4-[2-(2-butyl-benzofuran-3-yl)-ethyl]-phenoxysulfonyl}-benzoic acid] | – | 54 to 57 | 51.4 | –
CCc1oc2ccccc2c1C(=O)c1cc(C(C)C)c(OS(=O)(=O)c2ccc(C(=O)O)c(O)c2)c(C(C)C)c1 [Example 4, 4-[4-(2-Ethyl-benzofuran-3-carbonyl)-2,6-diisopropyl-phenoxysulfonyl]-2-hydroxy-benzoic acid] | 559 | 200 to 201 | – | –
Cc1sc(Cc2ccc(Br)cc2)c(C(=O)c2ccc(OS(=O)(=O)c3cnn(C)c3)c(C3CCCC3)c2)c1C [Example 27, 1-Methyl-1H-pyrazole-4-sulfonic acid 4-[2-(4-bromo-benzyl)-4,5-dimethyl-thiophene-3-carbonyl]-2-cyclopentyl-phenyl ester] | – | 55 to 60 | 22.7 | –
CCc1cc(C(=O)c2c(Cc3ccccc3)oc(C)c2C)cc(CC)c1OS(=O)(=O)c1ccc(C(=O)O)c(O)c1 [Example 19, 4-[4-(2-Benzyl-4,5-dimethyl-furan-3-carbonyl)-2.6-diethyl-phenoxysulfonyl]-2-hydroxy-benzoic acid] | 633 | 143 to 147 | – | –
CCc1oc2ccccc2c1C(=O)c1cc(C)c(OS(=O)(=O)c2ccc(C(=O)O)c(O)c2)c(C)c1 [Example 3, 4-[4-(2-Ethyl-benzofuran-3-carbonyl)-2,6-dimethyl-phenoxysulfonyl]-2-hydroxy-benzoic acid] | 421 | 166 to 167 | – | –
O=C(O)c1ccc(S(=O)(=O)Oc2ccc(CCc3c(Cc4ccccc4)sc4ccccc34)cc2)cc1O [Example 12, 4-{4-[2-(2-Benzyl-benzo[b]thiophen-3-yl)thyl]-phenoxysulfonyl}-2-hydroxy-benzoic acid] | 183 | 57 to 59 | – | –
CCCCc1oc2ccccc2c1CCc1ccc(OS(=O)(=O)c2ccc(C(=O)O)c(O)c2)cc1 [Example 14, 4-{4-[2-(2-Butyl-benzofuran-3-yl)-ethyl]-phenoxysulfonyl}-2-hydroxy-benzoic acid] | 60 | 93 to 95 | – | –
CCc1oc2ccccc2c1C(=O)c1cc(Br)c(OS(=O)(=O)c2ccc(C(=O)O)c(O)c2)c(Br)c1 [Example 1, 4-[2,6-Dibromo-4-(2-ethyl-benzofuran-3-carbonyl)-phenoxysulfonyl]-2-hydroxy-benzoic acid] | 251 | 173 | – | –
Cc1oc(Cc2ccc(Br)cc2)c(C(=O)c2ccc(OS(=O)(=O)c3ccc(C(=O)O)c(O)c3)c(C3CCCC3)c2)c1C [Example 13, 4-{4-[2-(4-Bromo-benzyl)4,5-dimethyl-furan-3-carbonyl]-2-cyclopentyl-phenoxysulfonyl}-2-hydroxy-benzoic acid] | 267 | 188 to 192 | – | –
CC(=O)Oc1cc(S(=O)(=O)Oc2ccc(C(=O)c3c(Cc4ccccc4)oc(C)c3C)cc2C2CCCC2)ccc1C(=O)O [Example 22, 2-Acetoxy4-[4-(2-benzyl-4,5-dimethyl-furan-3-carbonyl)-2-cyclopentyl-phenoxysulfonyl]-benzoic acid] | 508 | 55 to 90 | – | –
4-[4-(2-Butyl-benzofuran-3-carbonyl)-phenylsulfonyl]-2-hydroxy-benzoic acid [Example 16] | – | – | – | 22.81
CCc1oc2ccccc2c1C(=O)c1cc(-c2ccccc2)c(OS(=O)(=O)c2ccc(C(=O)O)c(O)c2)c(-c2ccccc2)c1 [Example 6, 4-[5′-(2-Ethyl-benzofuran-3-carbonyl)-[1,1′: 3′,1″]terphenyl-2′-yloxysulfonyl-]2-hydroxy-benzoic acid sodium salt] | 256 | – | – | –
Cc1sc(Cc2ccccc2)c(C(=O)c2ccc(OS(=O)(=O)c3ccc(C(=O)O)c(O)c3)c(C3CCCC3)c2)c1C [Example 18, 4-[4-(2-Benzyl-4,5-dimethyl-thiophene-3-carbonyl)-2-cyclopentyl-phenoxysulfonyll-]2-hydroxy-benzoic acid] | 404 | 70 to 77 | – | –
Cc1cc(C(=O)c2c(Cc3ccccc3)oc(C)c2C)cc(-c2ccccc2)c1OS(=O)(=O)c1ccc(C(=O)[O-])c(O)c1.[Na+] [Example 7, 4-[5-(2-Benzyl4,5-dimethyl-furan-3-carbonyl)-3-methyl-biphenyl-2-yloxysulfonyl]-2-hydroxy-benzoic acid sodium salt] | 180 | 187 to 190 | – | –
CC(=O)Oc1cc(S(=O)(=O)Oc2ccc(C(=O)c3c(Cc4ccccc4Br)oc(C)c3C)cc2C2CCCC2)ccc1C(=O)O [Example 25, 2-Acetoxy-4-{4-[2-(2-Bromo-benzyl)-4,5-dimethyl-fuiran-3-carbonyl]-2-cyclopentyl-phenoxysulfonyl}-benzoic acid] | 241 | 79 | – | –
CC(=O)Oc1cc(S(=O)(=O)Oc2ccc(C(=O)c3c(Cc4ccccc4)sc(C)c3C)cc2C2CCCC2)ccc1C(=O)O [Example 23, 2-Acetoxy4-[4-(2-benzyl-4,5-dimethyl-thiophene-3-carbonyl)-2-cyclopentyl-phenoxysulfonyl]-benzoic acid] | 439 | 94 to 96 | – | –
Cc1oc(Cc2ccccc2Br)c(C(=O)c2cc(C(C)C)c(OS(=O)(=O)c3ccc(C(=O)O)c(O)c3)c(C(C)C)c2)c1C [Example 9, 4-{4-[2-(2-Bromo-benzyl)-4.5-dimethyl-furan-3-carbonyl]-2.6-diisopropyl-phenoxysulfonyl}-2-hydroxy-benzoic acid] | 83 | 90 to 95 | – | –
Cc1sc(Cc2ccc(Br)cc2)c(C(=O)c2ccc(OS(=O)(=O)c3ccc(C(=O)O)c(O)c3)c(C3CCCC3)c2)c1C [Example 20, 4-{4-[2-(4-Bromo-benzyl)4.5-dimethyl-thiophene-3-carbonyl]-2-cyclopentylphenoxysulfonyl}-2-hydroxy-benzoic acid] | 148 | 165 to 170 | – | –
